{
  "source": "patent US20240325517A1",
  "about": "“COMPOSITIONS AND METHODS TARGETING FILAMENTOUS BACTERIOPHAGE” (THE UNIVERSITY OF MONTANA, priority 2020, published 2024)",
  "key": {"CoaBa1 hapten": {"tested_on": "CoaBa1 hapten", "assay": "Adjuvant system for CoaB-CRM conjugate, total serum IgG ELISA (Example 9)", "format": "in vivo, C57/BL/6 mice", "settings": "for Mean Log10 total serum IgG titer: booster day 14, serum 14 days post-secondary", "protocol": "The lead CoaB vaccines consist of a peptide hapten conjugated to CRM197. To determine whether TLR7 and TLR4 adjuvants would provide a beneficial effect on antibody titres or provide a dose sparing effect, female C57/BL/6 mice aged 6-8 weeks old (10 per group) were vaccinated intramuscularly with 1 μg of CoaBa-CRM conjugate in combination with indicated dose of (Adjuvant B), a TLR 7/8 adjuvant, and or (Adjuvant A) a TLR4 adjuvant. A booster with respective dose of adjuvant combination with […] of CoaBa-CRM conjugate was administered 14 days post primary. ELISA data is from serum collected 14 days post-secondary vaccination boost."}, "CoaBa [1]": {"tested_on": "CoaBa", "assay": "Anti-CoaBa IgG subtypes induced with TLR4 agonist, ELISA (Example 10)", "format": "in vivo, C57/BL/6 mice", "parameters": "unit not given here", "settings": "booster day 14, serum 14 days post-secondary"}, "CoaBa [2]": {"tested_on": "CoaBa", "assay": "Anti-CoaBa IgG subtypes induced with TLR4 agonist, ELISA (Example 10)", "format": "in vivo, C57/BL/6 mice", "parameters": "Mean total IgG / Mean IgG1 / Mean IgG2b: unit not given here", "settings": "for Mean IgG1 / Mean IgG2b / Mean total IgG: booster day 14, serum 14 days post-secondary", "protocol": "Female C57/BL/6 mice aged 6-8 weeks old (5 per group) were vaccinated intramuscularly with […] of CoaBa-CRM conjugate in combination with indicated dose of TLR4 agonist Adjuvant A. A booster with respective dose of adjuvant combination with 1 μg of CoaBa-CRM conjugate was administered 14 days post primary. ELISA data are from serum collected 14 days postsecondary vaccination boost. (A) Total IgG, (B) IgG1, (C) IgG2a isotypes are shown."}, "CoaBa1": {"tested_on": "CoaBa1", "assay": "Total IgG ELISA, plate coated with CoaBa1 (Example 11)", "format": "in vivo, C57/BL/6 mice", "settings": "for Total IgG ELISA plate coated with CoaBa1: 1 μg conjugate IM, with 1 μg Adj A where named, booster day 14, serum 14 days post-secondary; for cross-reactivity to CoaBa1 (in words): vaccination, Tables 16 and 17 cited in text", "protocol": "(§1) Female C57/BL/6 mice aged 6-8 weeks old (8 per group) were vaccinated intramuscularly with 1 μg of CoaBa-CRM or […] of CoaBb-CRM conjugate in combination with […] dose of TLR 4 agonist Adjuvant A. A booster with 1 μg dose of Adjuvant A adjuvant combination with 1 μg of respective conjugate was administered 14 days post primary. ELISA data is from serum collected 14 days post-secondary vaccination boost. CoaBa1 within-clade cross reactive immunity against coaBa2 was determined. (Tables 15 and 16). Clade A CoaBa cross-reactive immunity against Clade B CoaBb epitope was determined. (Table 17)."}, "CoaBb1": {"tested_on": "CoaBb1", "assay": "Total IgG ELISA, plate coated with CoaBb1 (Example 11)", "format": "in vivo, C57/BL/6 mice", "settings": "1 μg conjugate IM, with 1 μg Adj A where named; booster day 14; serum 14 days post-secondary", "protocol": "as §1"}, "CoaBa2": {"tested_on": "CoaBa2", "assay": "Total IgG ELISA, plate coated with CoaBa2 (Example 11)", "format": "in vivo, C57/BL/6 mice", "settings": "for Total IgG ELISA plate coated with CoaBa2: 1 μg conjugate IM, with 1 μg Adj A where named, booster day 14, serum 14 days post-secondary", "protocol": "as §1"}, "[3]": {"settings": "cited from earlier work"}, "sheep red blood cells": {"tested_on": "sheep red blood cells", "settings": "cited from earlier work"}, "[4]": {"target": "CoaBa (Pseudomonas aeruginosa filamentous (Pf) bacteriophage)", "assay": "anti-CoaBa serum ELISA; 14 days post boost; C57BL/6"}, "[5]": {"settings": "0.01 μg Adj A with 1 μg CoaBa-CRM conjugate IM"}, "[6]": {"settings": "0.1 μg Adj A with 1 μg CoaBa-CRM conjugate IM"}, "[7]": {"settings": "1 μg Adj A with 1 μg CoaBa-CRM conjugate IM"}, "[8]": {"settings": "0.001 μg Adj A with 1 μg CoaBa-CRM conjugate IM"}, "[9]": {"settings": "10 μg Adj A with 1 μg CoaBa-CRM conjugate IM"}, "[10]": {"settings": "0.0001 μg Adj A with 1 μg CoaBa-CRM conjugate IM"}},
  "note": "Read-outs that look alike come from different tables or passages of the source. Where no end group is shown, it is not given here.",
  "data": [
    {"molecule": "CCCCCCCCCCC[C@H](CC(=O)NCCO[C@@H]1OC(CO)[C@@H](OS(=O)(=O)O)[C@H](NC(=O)C[C@@H](CCCCCCCCCCC)OC(=O)CCCCCCCCC)C1NC(=O)C[C@@H](CCCCCCCCCCC)OC(=O)CCCCCCCCC)OC(=O)CCCCCCCCC", "note": "(stereo partly shown) [Adjuvant A]", "values": [
      {"measurement": "Mean Log10 total serum IgG titer", "setting": "CoaBa1 hapten; [5]", "value": 3.74, "unit": "Log10"},
      {"measurement": "Mean Log10 total serum IgG titer", "setting": "CoaBa1 hapten; [6]", "value": 4.55, "unit": "Log10"},
      {"measurement": "Mean Log10 total serum IgG titer", "setting": "CoaBa1 hapten; [7]", "value": 5.12, "unit": "Log10"},
      {"measurement": "antibody titers against the CoaBa1 hapten (in words)", "setting": "CoaBa1 hapten; vaccine dose experiments with 1 μg CoaBa-CRM conjugate", "value": "produced the highest antibody titers against the CoaBa1 hapten"},
      {"measurement": "Mean IgG2b", "setting": "CoaBa [1]; [8]", "value": 1.22},
      {"measurement": "Mean IgG2b", "setting": "CoaBa [1]; [5]", "value": 2.45},
      {"measurement": "Mean IgG2b", "setting": "CoaBa [1]; [6]", "value": 3.90},
      {"measurement": "Mean IgG2b", "setting": "CoaBa [1]; [9]", "value": 3.31},
      {"measurement": "Mean IgG1", "setting": "CoaBa [2]; [10]", "value": 0.95},
      {"measurement": "Mean IgG2b", "setting": "CoaBa [2]; [10]", "value": 1.02},
      {"measurement": "Mean total IgG", "setting": "CoaBa [2]; [10]", "value": 1.27},
      {"measurement": "Mean IgG1", "setting": "CoaBa [2]; [8]", "value": 1.86},
      {"measurement": "Mean total IgG", "setting": "CoaBa [2]; [8]", "value": 2.38},
      {"measurement": "Mean IgG1", "setting": "CoaBa [2]; [5]", "value": 1.99},
      {"measurement": "Mean total IgG", "setting": "CoaBa [2]; [5]", "value": 3.15},
      {"measurement": "Mean IgG1", "setting": "CoaBa [2]; [6]", "value": 2.45},
      {"measurement": "Mean total IgG", "setting": "CoaBa [2]; [6]", "value": 4.00},
      {"measurement": "Mean IgG1", "setting": "CoaBa [2]; [7]", "value": 3.60},
      {"measurement": "Mean IgG2b", "setting": "CoaBa [2]; [7]", "value": 4.31},
      {"measurement": "Mean total IgG", "setting": "CoaBa [2]; [7]", "value": 4.19},
      {"measurement": "Mean IgG1", "setting": "CoaBa [2]; [9]", "value": 2.88},
      {"measurement": "Mean total IgG", "setting": "CoaBa [2]; [9]", "value": 4.25},
      {"measurement": "IgG subtype analysis (in words)", "setting": "CoaBa [2]; adjuvanting CoaBa with Adjuvant A", "value": "elicited both IgG1 and IgG2b subclasses"}
    ]},
    {"molecule": "CoaBa1: CoaBa1 hapten-CRM197 conjugate vaccine (GVIDTSAVESAITDGQGD; not fully specified)", "values": [
      {"measurement": "Total IgG ELISA plate coated with CoaBa1", "setting": "CoaBa1", "value": 0.50},
      {"measurement": "Total IgG ELISA plate coated with CoaBb1", "setting": "CoaBb1", "value": 0.5},
      {"measurement": "Total IgG ELISA plate coated with CoaBa2", "setting": "CoaBa2", "value": 0.5},
      {"measurement": "cross-reactivity to CoaBa2-CRM197 (in words)", "setting": "CoaBa2; vaccination, Table 15 cited in text", "value": "produced cross-reactivity to CoaBa2-CRM197"}
    ]},
    {"molecule": "CoaBa2: CoaBa2 hapten-CRM197 conjugate vaccine (GSVIDTSAVEAAITEGKGD; not fully specified)", "values": [
      {"measurement": "Total IgG ELISA plate coated with CoaBa1", "setting": "CoaBa1", "value": 0.50},
      {"measurement": "cross-reactivity to CoaBa1 (in words)", "setting": "CoaBa1", "value": "produced cross-reactivity to CoaBa1-CRM197"},
      {"measurement": "Total IgG ELISA plate coated with CoaBa2", "setting": "CoaBa2", "value": 0.5}
    ]},
    {"molecule": "CoaBb1: CoaBb-CRM conjugate vaccine, subclade b1 (ADSLIDETTKEVLTQAGTDG; also: conjugated to CRM carrier, site not given here)", "values": [
      {"measurement": "cross-reactivity to CoaBa1 (in words)", "setting": "CoaBa1", "value": "did not produce cross-reactive immunity to clade A subtypes CoaBa1"},
      {"measurement": "Total IgG ELISA plate coated with CoaBb1", "setting": "CoaBb1", "value": 0.5}
    ]},
    {"molecule": "QS-17", "values": [
      {"measurement": "critical micellar concentration", "setting": "[3]; in phosphate buffered saline", "value": "0.03 % (w/v)"},
      {"measurement": "critical micellar concentration", "setting": "[3]; in water", "value": "0.06 % (w/v)"},
      {"measurement": "concentrations causing hemolysis of sheep red blood cells", "setting": "sheep red blood cells", "value": "≥ 25000", "unit": "ng/mL"}
    ]},
    {"molecule": "QS-18", "values": [
      {"measurement": "critical micellar concentration", "setting": "[3]; in phosphate buffered saline", "value": "0.02 % (w/v)"},
      {"measurement": "critical micellar concentration", "setting": "[3]; in water", "value": "0.04 % (w/v)"}
    ]},
    {"molecule": "QS-21", "values": [
      {"measurement": "critical micellar concentration", "setting": "[3]; in phosphate buffered saline", "value": "~0.02 % (w/v)"},
      {"measurement": "critical micellar concentration", "setting": "[3]; in water", "value": "about 0.03 % (w/v)"},
      {"measurement": "concentrations causing hemolysis of sheep red blood cells", "setting": "sheep red blood cells", "value": "≥ 25000", "unit": "ng/mL"}
    ]},
    {"molecule": "serum of naïve (unvaccinated) mice", "values": [
      {"measurement": "Mean IgG1", "setting": "[4]", "value": 0.5},
      {"measurement": "Mean IgG2b", "setting": "[4]", "value": 0.5},
      {"measurement": "Mean total IgG", "setting": "[4]", "value": 0.5}
    ]}
  ]
}
